Experimental data taken from patent US11026940B2, “Compositions for the mobilization, homing, expansion and differentiation of stem cells and methods of using the same” (Ampio Pharmaceuticals, Inc., priority 2013, dated 2021).

Tests used:
CXCR4 = CXCR4 transcription by MSC in hanging drop (3D) culture, RTPCR; assay type: cell-based, human; conditions: Actin normalization, 4 days
Method: (§1) This effect is more pronounced if the cells are grown directly on plastic in a 2D conformation. In this example, MSCs are cultured in hanging drop cultures in the presence of Ampion™ and then mRNA is evaluated by RTPCR.
(§2) Materials: • Passage 5 Bone marrow derived human mesenchymal stem cells (HUXMA-01001, Cyagen Biosciences, Sunnyvale Calif.) • Mesenchymal Stem Cell Chondrogenic Differentiation medium (GUXMX-90041, Cyagen Biosciences, Sunnyvale Calif.) • TheraPEAK MSCGM chemically defined Stem cell medium (190632 Lonza) • Lonza MSGM (contains serum) • 10 mM Cobalt chloride in saline, sterile filtered (Sigma) • Saline or 0.9% Sodium chloride for injection ZR Flush (Excelsior Medical, Neptune N.J.) • 0.2 μM syringe filters • Hepes buffered saline, Trypsin/EDTA, Trypsin neutralizing solution (Lonza reagent pack) • 182 cm^2 tissue culture flasks • pipettes and sterile tips • Tissue culture hood, humidified CO2 incubator, water or bead bath • 10 cm^2 petri dishes • Qiagen RNeasy plus spin columns (Qiagen 74134) • Qiagen RT^2 qPCR primer pairs for CXCR4, CXCL12, Collagen 2A1, MMP14, MMP13, Aggrecan, IGA4, GAPDH, and Actin B • Roche Sybr green I master mix and Invitrogen Superscript VILO master mix. • Roche 480 lightcycler Cell Expansion: • Passage 5 HUXMA cells were removed from liquid nitrogen storage and expanded in 182 cm^2 flasks containing 40 mls TheraPEAK MSCGM until 80-90% confluence. • Trypsinize cells using standard protocol and proceed to the next step. […] RNA Isolations and Analysis: • After 4 days, remove the plates from the incubator. • Wash spheroids from the lid with 5 mls of the warm PBS in the bottom of each plate and transfer to 15 ml conical centrifuge tubes. • Spin cells at 1000 RPM for 5 minutes and aspirate the solution. • To each tube, add 350 μl Qiagen RNeasy plus lysis buffer (with 2ME). • Transfer solution to Qiashredder columns and spin at 14,000 rpm for 2 minutes. • Proceed with RNeasy plus protocol following manufacturers recommendations. • Elute RNA from columns using 30 μl RNase free water. cDNA Synthesis and Real Time PCR: • First strand synthesis of cDNA from all samples was then performed following the recommended 20 μl total volume protocol using 10 μl isolated RNA. • All cDNA reactions were then diluted with 30 μl nuclease free water. • Real time PCR was then performed using 5 μl diluted cDNA, Roche Syber green master mix, and Qiagen RT^2 qPCR primer pairs (20 μl total volume). • Relative gene expression determined by delta deta Ct method. […]

CXCL12 = CXCL12 transcription by MSC in hanging drop (3D) culture, RTPCR; assay type: cell-based, human; conditions: Actin normalization, 4 days
Method: as §1, §2

[1] = system: Bone marrow derived human mesenchymal stem cells; assay: Migration (invasion) assay using pretreated stem cells, transwell, calcein AM fluorescence; assay type: cell-based; conditions: for mean FU: cells pretreated 72 hours, migration 24 hours; for FU 1: replicate 1; for FU 2: replicate 2; for FU 3: replicate 3
Method: This experiment will be designed to establish if migration of MSC is altered as well.
• Passage 5 Bone marrow derived human mesenchymal stem cells (HUXMA-01001, Cyagen Biosciences, Sunnyvale Calif.) • TheraPEAK MSCGM chemically defined Stem cell medium (190632 Lonza) • Lonza MSGM, Gibco RPMI, Gibco Defined fetal bovine serum. • 10 mM Cobalt chloride in saline, sterile filtered (Sigma) • Saline or 0.9% Sodium chloride for injection ZR Flush (Excelsior Medical, Neptune N.J.) • 0.2 μM syringe filters • Hepes buffered saline, Trypsin/EDTA, Trypsin neutralizing solution (Lonza reagent pack) • 25 and 175 cm^2 tissue culture flasks • pipettes and sterile tips • Tissue culture hood, humidified CO2 incubator, water or bead bath • 8.0 um Thincert tissue culture inserts and 24 well tissue culture plates (Greiner) • 50 μg Calcein AM vials (BD Biosciences) • DMSO (Sigma) Cell Expansion: • Passage 5 HUXMA cells were removed from liquid nitrogen storage and expanded in 175 cm^2 flasks containing 40 mls TheraPEAK MSCGM until 80-90% confluence. • Trypsinize cells using standard protocol and proceed to the next step. Treatment of Cells: • Prepare the following working dilutions in saline for injection from the stocks listed above. • Saline • 800 uM Cobalt Chloride in saline • Neat Ampion • Warm dilutions and Lonza MSCGM to 37° C. in bead bath. • Prepare a cell suspension of HUXMA stem cells in warmed MSCGM medium. • Count and then bring up 250,000 from the cell suspension in 4 mls warmed MSCGM. • Add the diluted cell solution to a 25 cm^2 tissue culture flasks. • Add 1 ml of the appropriate working dilution to the flask. • Incubate at 37° C. and 5% CO2 for 72 hours. Invasion Assay: • Remove the cells from the flask with trypsin and place in 600 μl RPMI+0.5% FBS. • Add 200 μl of the resulting cell suspension to the upper chamber of thinserts (3 inserts per treatment group) resting in a 24 well tissue culture plate. • Add 600 μl RPMI+0.5% FBS to the bottom chamber of the transwell system. • Add 66 μl of one the following solutions to the bottom chamber for each treatment group. • 550 ng/ml SDF (final 50 ng/ml) • 110 ng/ml TGF beta3 (final 10 ng/ml) • Serum (final 10%) • Incubate the plate for 24 hours at 37° C. and 5% CO2. Labeling and Cell Detection. • Remove two calcein AM vials and add 20 μl DMSO. • Transfer the contents of both vials to 12.5 ml RPMI containing 0.2% BSA. • Place 450 μl of the calcein AM solution (8 μM) in each well of a 24 well tissue culture plate. • Transfer the inserts from above to the wells containing calcein AM and incubate 45 minutes at 37° C. and 5% CO2. • After loading the cells with calcein AM, transfer the inserts to 24 well tissue culture plate wells containing 450 μl trypsin EDTA and incubate for another 10 minutes. • Discard inserts then add 450 μl trypsin neutralizing solution to each well. • Transfer 250 μl of the resulting solution to a 96 well black, flat bottom plate well (each reaction in triplicate). • Read fluorescence at 485 nm excitation and 530 nm emission.

SMILES: [Cl][Co][Cl] [Cobalt, Cobalt chloride]
- 2-^ΔΔCp vs saline, CXCR4 (CXCR4): 8.369
- regulation, CXCR4 (CXCR4): 8.37
- ΔΔCp vs saline, CXCR4 (CXCR4): −3.065
- ΔCp, CXCR4 (CXCR4; hanging drop culture): 11.19
- 2-ΔΔCp vs saline, CXCL12 (CXCL12): 0.005
- regulation, CXCL12 (CXCL12): −219.79
- ΔΔCp vs saline, CXCL12 (CXCL12): 7.78
- ΔCp, CXCL12 (CXCL12; hanging drop culture): 14.91
- % increase (migration vs saline) ([1]; chemoattractant 10% FBS): 29.1%
- mean FU ([1]; chemoattractant 10% FBS): 343.27 FU
- FU 1 ([1]; chemoattractant 10% FBS): 346.49 FU
- FU 2 ([1]; chemoattractant 10% FBS): 329.28 FU
- FU 3 ([1]; chemoattractant 10% FBS): 354.03 FU
- % increase (migration vs saline) ([1]; chemoattractant SDF-1): 1.2%
- mean FU ([1]; chemoattractant SDF-1 (final 50 ng/ml)): 255.86 FU
- FU 1 ([1]; chemoattractant SDF-1): 215.24 FU
- FU 2 ([1]; chemoattractant SDF-1): 267.07 FU
- FU 3 ([1]; chemoattractant SDF-1): 285.27 FU
- % increase (migration vs saline) ([1]; chemoattractant TGF B3): −6.8%
- mean FU ([1]; chemoattractant TGF B3 (final 10 ng/ml)): 286.77 FU
- FU 1 ([1]; chemoattractant TGF B3): 274.97 FU
- FU 2 ([1]; chemoattractant TGF B3): 288.44 FU
- FU 3 ([1]; chemoattractant TGF B3): 296.9 FU
